Assay results as given in patent US9302003B2, “Compositions comprising a radiosensitizer and an anti-cancer agent and methods of uses thereof” (priority 2009, dated 2016).

Test system: F98 glioma
Test: Surviving assay in Fischer rats implanted with F98 glioma, intra carotid drug delivery with or without Gamma Knife irradiation
Format: in vivo
Conditions: F98 glioma-bearing Fischer rats, 1 ml/rat intra-carotid 10 days after implantation; LipoGold with 15 Gy Gamma Knife 8 h later; FIG. 6

SMILES | life span / surviving time
N.N.[Cl][Pt][Cl] [cisplatin, cis-diammineplatinum(II) dichloride] | died before sham animals
O=C1[O][Pt]2([NH][C@@H]3CCCC[C@H]3[NH]2)[O]C1=O [oxaliplatin] | short life span, similar to sham animals
